{
  "source": "paper PMC6128596",
  "about": "“Cyclooxygenase pathway mediates the inhibition of Na-glutamine co-transporter B0AT1 in rabbit villus cells during chronic intestinal inflammation” (PLoS ONE, 2018)",
  "system": "T1, B0AT1",
  "T1 construct": "gene SLC6A19; native full-length transporter in brush border membrane vesicles from rabbit ileal villus cells; not purified",
  "assay": "Na-dependent [3H]glutamine uptake into villus BBMV, […] s, rapid filtration",
  "type": "biochemical, Oryctolagus cuniculus",
  "conditions": "control (normal) rabbits; 0.2-100 mM glutamine; 100 mM NaCl versus choline chloride; pH 7.5; 3H-glutamine tracer",
  "data": [
    {"smiles": "NC(=O)CC[C@H](N)C(=O)O", "note": "[glutamine]", "values": [
      {"measurement": "Km", "result": "24.6 ± 1.8", "unit": "mM"}
    ]}
  ]
}
